Source: ChEMBL document CHEMBL1151530, “Characterization of the in vitro oxidative metabolites of the COX-2 selective inhibitor L-766,112” (Bioorg Med Chem Lett, 1997)

Legend:
[1] = Percentage recovery in rat hepatic microsomal fractions under oxidative conditions after 1 hour; format: ADME; conditions: liver microsomes, read-out: Recovery
Macaca mulatta = species: Macaca mulatta; experiment: Percentage recovery in rhesus monkey hepatic microsomal fractions under oxidative conditions after 1 hour; conditions: liver microsomes

- remaining at 1 h [1]: 75%
- remaining at 1 h (Macaca mulatta): 65%
Compound: CS(=O)(=O)c1ccc(-c2c(-c3ccccc3)nc3sccn23)cc1
